Data published in ChEMBL document CHEMBL1932947, “Emodin inhibits migration and invasion of DLD-1 (PRL-3) cells via inhibition of PRL-3 phosphatase activity” (Bioorg Med Chem Lett, 2012).
Calls of active or inactive are those of the source. The calls are words filed in the database; no cut-off is given here.

What was measured:
[1] = target: T1, Protein tyrosine phosphatase type IVA 3 (Homo sapiens, UniProt O75365); assay: Inhibition of PRL-3-mediated cell migration in human DLD1 cells after 15 hrs by crystal violet staining based microscopic assay; conditions: DLD-1
T1 sequence (O75365 whole entry): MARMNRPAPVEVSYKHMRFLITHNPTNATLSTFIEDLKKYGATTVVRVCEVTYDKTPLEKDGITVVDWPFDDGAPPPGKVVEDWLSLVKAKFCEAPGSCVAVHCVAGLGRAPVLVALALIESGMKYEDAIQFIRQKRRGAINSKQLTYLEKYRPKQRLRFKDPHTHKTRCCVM

[2] = target: T1, Protein tyrosine phosphatase type IVA 3; assay: Inhibition of PRL-3-mediated cell migration in human DLD1 cells at 40 uM after 15 hrs by crystal violet staining based microscopic assay; conditions: DLD-1
[3] = target: T1, Protein tyrosine phosphatase type IVA 3; assay: Inhibition of PRL3-mediated ezrin phosphorylation in human DLD1 cells assessed as increase in alpha-ERM-Thr567 phosphorylation at 10 to 40 uM after 15 hrs by chemiluminescence method relative to control; type: cell-based; conditions: DLD-1
DLD-1 = assay: Cytotoxicity against human DLD1 cells expressing PRL-3 assessed as inhibition of cell proliferation up to 50 uM after 24 hrs by WST-1 assay; type: cell-based; conditions: dld-1, 24 h
[4] = target: T1, Protein tyrosine phosphatase type IVA 3; assay: Inhibition of PRL3 after 1 hr by DiFMUP assay
Ezrin (Homo sapiens) = Ezrin (Homo sapiens) (UniProt P15311); assay: Inhibition of ezrin phosphorylation in human DLD1 cells assessed as increase in alpha-ERM-Thr567 phosphorylation at 10 to 40 uM after 15 hrs by chemiluminescence method; type: cell-based; conditions: DLD-1
Chain of Ezrin (Homo sapiens) (P15311 whole entry): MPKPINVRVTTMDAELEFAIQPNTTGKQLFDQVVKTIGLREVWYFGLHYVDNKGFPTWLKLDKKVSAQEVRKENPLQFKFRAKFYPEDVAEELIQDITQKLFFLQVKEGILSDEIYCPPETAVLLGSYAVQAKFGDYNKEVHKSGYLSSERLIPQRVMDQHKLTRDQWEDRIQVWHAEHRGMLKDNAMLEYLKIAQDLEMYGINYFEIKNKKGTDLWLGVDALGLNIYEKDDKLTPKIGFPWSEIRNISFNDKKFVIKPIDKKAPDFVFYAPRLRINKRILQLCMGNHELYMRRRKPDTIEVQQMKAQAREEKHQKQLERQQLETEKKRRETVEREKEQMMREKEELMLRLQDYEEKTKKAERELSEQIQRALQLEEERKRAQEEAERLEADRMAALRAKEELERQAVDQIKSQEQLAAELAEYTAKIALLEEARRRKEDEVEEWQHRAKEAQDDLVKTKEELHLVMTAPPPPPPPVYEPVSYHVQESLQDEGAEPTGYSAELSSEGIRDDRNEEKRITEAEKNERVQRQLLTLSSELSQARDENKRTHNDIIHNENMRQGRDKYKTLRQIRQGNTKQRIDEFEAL

[5] = target: T1, Protein tyrosine phosphatase type IVA 3; assay: Inhibition of PRL-3-mediated cell invasion in human DLD1 cells after 20 hrs using crystal violet staining by Matrigel invasion assay; type: cell-based; conditions: DLD-1
[6] = target: T1, Protein tyrosine phosphatase type IVA 3; assay: Inhibition of PRL-3-mediated cell invasion in human DLD1 cells at 40 uM after 20 hrs using crystal violet staining by Matrigel invasion assay; type: cell-based; conditions: DLD-1

Cc1cc(O)c2c(c1)C(=O)c1cc(O)cc(O)c1C2=O [EMODIN]
inhibition [1]: Dose-dependent effect | inhibition [2]: > 80% | inhibition [3]: Active | Activity (DLD-1): Non-toxic | IC50 [4]: 3.5 µM | inhibition [4]: Dose-dependent effect | inhibition (Ezrin (Homo sapiens)): inactive | inhibition [5]: Dose-dependent effect | inhibition [6]: 70%
